Measurements: ChEMBL document CHEMBL1201862, “PubChem BioAssay data set” (2004)
Active and inactive are the calls of the source.

What was measured:
BJ [1] = experiment: cells; format: functional, cell-based; conditions: Homo sapiens
[2] = inhibitors of firefly luciferase expression or activity, dose response, H4 neuroglioma cells, luminescence (AID 1990); format: functional, cell-based
[3] = luciferase reporter signal reduction – luminescence, H4-C neuroglioblastoma cells, dose response (AID 2458); format: functional, cell-based;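 also: H4 neuroglioblastoma cells stably carrying a luciferase reporter gene fusion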
[4] = cytotoxicity toward DRD oncogenic fibroblasts, dose response, cell-based, non-viral oncogenic, luminescence (AID 1934); format: functional; conditions: Homo sapiens
cells = format: functional, cell-based
[5] = cytotoxicity in HEK-293T cells, dose response, cytotoxicity control for TCR NF-kB inhibitor project, luminescence, T-cell screen hits (AID 489026); format: functional, cell-based;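 also: cells exposed to compound about 14 hours before the viability readout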
[6] = Luminescence Cell-Based Dose Response HTS to Identify Inhibitors of 5'UTR Stem-Loop Driven Prion Protein mRNA Translation in H4 Neuroglioblastoma Cells. [Related pubchem assays: 1827 (Project Summary), 1813 (Primary HTS)]; format: functional
BJ [7] = experiment: cytotoxicity toward BJ-TERT fibroblasts, dose response, cell-based, RAS-independent, luminescence (AID 1933); format: functional; conditions: Homo sapiens
[8] = inhibitors of SNCA 5'UTR-driven reporter translation, confirmation, H4 neuroglioma cells, luminescence (AID 1988); format: functional, cell-based
[9] = HEK293 cell cytotoxicity, dose response, cytotoxicity control, dry powder samples (AID 720567); format: functional, cell-based
[10] = inhibitors of SNCA 5'UTR-driven translation, confirmation, luminescence, H4 neuroglioblastoma cells, dose confirmation (AID 2454); format: functional, cell-based;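 also: H4 neuroglioblastoma cells carrying an alpha-synuclein 5'UTR luciferase reporter; potency for inhibition of the luciferase signal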
J774.A1 = experiment: Confirmation of image-based Screening Assay for Inhibitors of Phagocytosis. [Related pubchem assays (depositor defined):AID1029, AID1643]; format: functional, cell-based; conditions: Mus musculus
BJ [11] = experiment: cytotoxicity toward BJ-TERT-LT-ST fibroblasts, dose response, cell-based, RAS-independent, luminescence (AID 1935); format: functional; conditions: Homo sapiens;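 also: BJ fibroblasts immortalized with TERT plus LT and ST oncogenes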
[12] = biological target: Heat shock 70 kDa protein 1A (Homo sapiens, UniProt P0DMV8); experiment: Hsp70 inhibitors, SAR follow-up, biochemical, fluorescence polarization (AID 1072)
[13] = biological target: Glyceraldehyde-3-phosphate dehydrogenase (Homo sapiens, UniProt P04406)
[14] = biological target: T1, RNA-binding protein pos-1 (Caenorhabditis elegans, UniProt G5EF15); experiment: inhibitors of POS-1/mex-3 RNA binding, dose response, biochemical, fluorescence polarization (AID 1964);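 also: purified POS-1 fused to maltose binding protein made in E. coli; potency of compounds blocking POS-1 binding to fluorescent RNA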
T1 sequence (G5EF15 whole entry): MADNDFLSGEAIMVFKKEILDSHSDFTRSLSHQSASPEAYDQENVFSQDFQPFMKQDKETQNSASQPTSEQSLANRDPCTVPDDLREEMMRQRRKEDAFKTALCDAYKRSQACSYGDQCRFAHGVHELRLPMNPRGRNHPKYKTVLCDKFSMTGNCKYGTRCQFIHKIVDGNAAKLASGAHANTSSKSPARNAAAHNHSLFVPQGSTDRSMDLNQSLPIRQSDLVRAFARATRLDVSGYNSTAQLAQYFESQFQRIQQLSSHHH

[15] = biological target: T2, Zinc finger protein mex-5 (Caenorhabditis elegans, UniProt Q9XUB2); experiment: MEX-5/TCR-2 RNA interaction inhibitors, dose response, biochemical, C. elegans, fluorescence polarization (AID 1960)
T2 sequence (Q9XUB2 whole entry): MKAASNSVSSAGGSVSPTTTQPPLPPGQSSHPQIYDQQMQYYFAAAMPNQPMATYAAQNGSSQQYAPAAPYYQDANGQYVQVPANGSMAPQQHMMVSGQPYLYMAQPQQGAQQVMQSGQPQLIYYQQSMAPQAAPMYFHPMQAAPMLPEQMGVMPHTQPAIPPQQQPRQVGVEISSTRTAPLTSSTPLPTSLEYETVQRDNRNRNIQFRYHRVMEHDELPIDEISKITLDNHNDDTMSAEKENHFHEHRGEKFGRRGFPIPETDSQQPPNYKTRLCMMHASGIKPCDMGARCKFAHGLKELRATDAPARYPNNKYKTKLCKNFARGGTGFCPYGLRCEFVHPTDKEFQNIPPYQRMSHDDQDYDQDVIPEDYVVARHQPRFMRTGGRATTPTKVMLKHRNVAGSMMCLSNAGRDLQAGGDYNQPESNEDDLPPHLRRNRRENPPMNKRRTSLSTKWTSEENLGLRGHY

[16] = biological target: Heat shock cognate 71 kDa protein (Homo sapiens, UniProt P11142); experiment: In Vitro Hsc70 Dose Response Fluorescence Polarization Assay. [Related pubchem assays: 1072 ]
ORF 73 = ORF 73 (Human herpesvirus 8, UniProt O40947); experiment: inhibitors of C-LANA binding to LBS DNA, dose response, biochemical, fluorescence polarization, cherry-picked samples (AID 504725); parameters: species or system Human gammaherpesvirus 8;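 also: fluorescence polarization of a labeled DNA duplex reporting LANA DNA binding; potency is for inhibitors that block LANA binding to the DNA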
Genome polyprotein = Genome polyprotein (dengue virus type 2, UniProt P29990); experiment: Dengue-2 NS5 methyltransferase inhibitors, primary screen, biochemical, confirmation dose response (AID 588689); format: functional
[17] = biological target: NACHT, LRR and PYD domains-containing protein 1 (Homo sapiens, UniProt Q9C000); experiment: NALP1 inhibitors in yeast, dose response, luminescent (AID 488860); format: functional
[18] = biological target: T3, Polyadenylate-binding protein 1 (Homo sapiens, UniProt P11940); experiment: PABP1 MLLE–PAM2 binding inhibitor potency, dose response, biochemical, fluorescence polarization, FITC-PAM2 peptide (AID 602259); format: functional; conditions: read-out: IC50_Mean
[19] = biological target: T3, Polyadenylate-binding protein 1; experiment: PABP1 MLLE–PAM2 interaction inhibitors, dose response, miRNA deadenylation inhibitor project, biochemical, fluorescence polarization, Cy5-PAM2 peptide, secondary (AID 602260); format: functional; conditions: read-out: IC50_Mean
Saccharomyces cerevisiae = experiment: NALP1 inhibitor project selectivity study, Caspase-1/ASC signal blockade IC50 in S. cerevisiae (AID 488863); format: functional, organism-based

T3 sequence (P11940 whole entry): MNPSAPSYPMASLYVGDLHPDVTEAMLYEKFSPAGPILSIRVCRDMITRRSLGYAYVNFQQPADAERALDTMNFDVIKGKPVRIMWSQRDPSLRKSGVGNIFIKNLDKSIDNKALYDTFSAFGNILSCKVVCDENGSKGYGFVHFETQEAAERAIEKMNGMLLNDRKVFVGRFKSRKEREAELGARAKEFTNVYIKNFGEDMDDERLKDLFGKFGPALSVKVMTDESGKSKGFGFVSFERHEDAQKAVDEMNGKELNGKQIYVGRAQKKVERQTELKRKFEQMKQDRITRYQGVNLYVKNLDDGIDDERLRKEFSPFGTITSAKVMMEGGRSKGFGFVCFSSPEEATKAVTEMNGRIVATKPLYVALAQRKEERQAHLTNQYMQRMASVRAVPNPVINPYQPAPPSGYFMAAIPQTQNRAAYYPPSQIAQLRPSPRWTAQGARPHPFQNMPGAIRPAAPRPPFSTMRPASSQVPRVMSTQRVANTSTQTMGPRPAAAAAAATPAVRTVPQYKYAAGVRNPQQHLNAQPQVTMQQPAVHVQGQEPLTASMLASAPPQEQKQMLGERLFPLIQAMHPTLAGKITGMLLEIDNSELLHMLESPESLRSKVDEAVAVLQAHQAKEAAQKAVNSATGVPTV
Genome polyprotein, sequence (P29990 2492-3391 limits assumed): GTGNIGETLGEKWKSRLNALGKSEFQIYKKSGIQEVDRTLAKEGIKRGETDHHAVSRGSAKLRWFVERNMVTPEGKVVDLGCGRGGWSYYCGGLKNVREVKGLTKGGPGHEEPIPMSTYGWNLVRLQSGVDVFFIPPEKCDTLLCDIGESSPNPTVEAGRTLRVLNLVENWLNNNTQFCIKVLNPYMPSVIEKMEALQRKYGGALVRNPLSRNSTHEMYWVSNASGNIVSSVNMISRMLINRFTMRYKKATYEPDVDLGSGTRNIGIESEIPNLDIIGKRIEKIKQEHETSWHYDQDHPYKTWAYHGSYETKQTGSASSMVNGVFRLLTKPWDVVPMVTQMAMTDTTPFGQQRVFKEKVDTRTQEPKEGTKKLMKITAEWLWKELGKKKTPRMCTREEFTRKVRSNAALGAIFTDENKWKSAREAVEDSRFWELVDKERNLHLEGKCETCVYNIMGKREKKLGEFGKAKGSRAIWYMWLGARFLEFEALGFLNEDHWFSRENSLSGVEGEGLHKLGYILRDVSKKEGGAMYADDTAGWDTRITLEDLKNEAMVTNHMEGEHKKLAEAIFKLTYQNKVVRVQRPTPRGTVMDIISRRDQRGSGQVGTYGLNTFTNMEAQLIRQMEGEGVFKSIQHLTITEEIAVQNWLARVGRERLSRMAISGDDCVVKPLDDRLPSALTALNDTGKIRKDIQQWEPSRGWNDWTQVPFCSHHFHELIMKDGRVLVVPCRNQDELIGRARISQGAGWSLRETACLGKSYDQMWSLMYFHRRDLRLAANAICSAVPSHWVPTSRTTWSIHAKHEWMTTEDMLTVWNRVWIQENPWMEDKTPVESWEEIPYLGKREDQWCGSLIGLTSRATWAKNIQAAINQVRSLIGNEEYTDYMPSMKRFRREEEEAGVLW
Glyceraldehyde-3-phosphate dehydrogenase, sequence (P04406 whole entry, the tested form may be a part): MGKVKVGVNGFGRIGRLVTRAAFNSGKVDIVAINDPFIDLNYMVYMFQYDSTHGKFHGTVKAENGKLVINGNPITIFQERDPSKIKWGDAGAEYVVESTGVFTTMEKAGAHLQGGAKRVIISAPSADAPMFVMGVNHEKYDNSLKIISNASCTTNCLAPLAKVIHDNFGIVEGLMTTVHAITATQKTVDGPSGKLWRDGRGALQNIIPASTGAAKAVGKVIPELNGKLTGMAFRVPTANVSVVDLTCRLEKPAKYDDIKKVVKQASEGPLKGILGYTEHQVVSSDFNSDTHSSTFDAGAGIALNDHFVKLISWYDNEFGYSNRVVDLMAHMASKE
Heat shock cognate 71 kDa protein, sequence (P11142 whole entry): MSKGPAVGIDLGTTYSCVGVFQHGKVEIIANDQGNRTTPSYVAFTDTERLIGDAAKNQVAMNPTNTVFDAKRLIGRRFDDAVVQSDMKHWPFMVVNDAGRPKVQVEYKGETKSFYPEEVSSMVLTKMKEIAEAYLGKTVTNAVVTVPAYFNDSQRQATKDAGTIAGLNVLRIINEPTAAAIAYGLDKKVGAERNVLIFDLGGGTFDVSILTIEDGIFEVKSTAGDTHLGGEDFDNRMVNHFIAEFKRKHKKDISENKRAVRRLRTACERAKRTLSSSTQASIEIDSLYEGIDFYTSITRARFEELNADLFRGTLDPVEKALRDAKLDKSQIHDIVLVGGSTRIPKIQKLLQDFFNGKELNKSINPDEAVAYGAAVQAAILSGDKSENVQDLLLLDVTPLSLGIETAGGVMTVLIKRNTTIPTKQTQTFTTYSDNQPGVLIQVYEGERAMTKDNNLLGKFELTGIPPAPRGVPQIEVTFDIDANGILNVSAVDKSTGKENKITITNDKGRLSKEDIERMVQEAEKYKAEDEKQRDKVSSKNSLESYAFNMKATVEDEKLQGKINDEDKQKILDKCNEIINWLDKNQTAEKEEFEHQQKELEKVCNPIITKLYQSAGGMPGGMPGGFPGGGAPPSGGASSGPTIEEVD
Heat shock 70 kDa protein 1A, sequence (P0DMV8 whole entry): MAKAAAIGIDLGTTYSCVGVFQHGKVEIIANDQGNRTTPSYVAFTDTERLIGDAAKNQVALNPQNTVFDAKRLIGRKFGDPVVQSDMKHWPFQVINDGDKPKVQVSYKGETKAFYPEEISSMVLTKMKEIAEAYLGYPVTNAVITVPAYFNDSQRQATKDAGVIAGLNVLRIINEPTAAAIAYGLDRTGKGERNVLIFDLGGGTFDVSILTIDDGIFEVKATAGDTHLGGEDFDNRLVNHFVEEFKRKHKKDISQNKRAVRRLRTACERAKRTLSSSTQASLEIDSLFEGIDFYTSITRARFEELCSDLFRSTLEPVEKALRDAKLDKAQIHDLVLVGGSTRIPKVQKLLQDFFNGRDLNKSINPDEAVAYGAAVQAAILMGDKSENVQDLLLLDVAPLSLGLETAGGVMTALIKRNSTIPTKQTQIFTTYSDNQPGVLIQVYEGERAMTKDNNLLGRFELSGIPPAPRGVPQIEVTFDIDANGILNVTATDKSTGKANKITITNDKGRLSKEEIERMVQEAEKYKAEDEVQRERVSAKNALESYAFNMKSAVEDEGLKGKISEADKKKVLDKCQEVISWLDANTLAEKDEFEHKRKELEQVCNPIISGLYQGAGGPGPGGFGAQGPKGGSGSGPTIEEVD
NACHT, LRR and PYD domains-containing protein 1, sequence (Q9C000 1-1212 limits assumed): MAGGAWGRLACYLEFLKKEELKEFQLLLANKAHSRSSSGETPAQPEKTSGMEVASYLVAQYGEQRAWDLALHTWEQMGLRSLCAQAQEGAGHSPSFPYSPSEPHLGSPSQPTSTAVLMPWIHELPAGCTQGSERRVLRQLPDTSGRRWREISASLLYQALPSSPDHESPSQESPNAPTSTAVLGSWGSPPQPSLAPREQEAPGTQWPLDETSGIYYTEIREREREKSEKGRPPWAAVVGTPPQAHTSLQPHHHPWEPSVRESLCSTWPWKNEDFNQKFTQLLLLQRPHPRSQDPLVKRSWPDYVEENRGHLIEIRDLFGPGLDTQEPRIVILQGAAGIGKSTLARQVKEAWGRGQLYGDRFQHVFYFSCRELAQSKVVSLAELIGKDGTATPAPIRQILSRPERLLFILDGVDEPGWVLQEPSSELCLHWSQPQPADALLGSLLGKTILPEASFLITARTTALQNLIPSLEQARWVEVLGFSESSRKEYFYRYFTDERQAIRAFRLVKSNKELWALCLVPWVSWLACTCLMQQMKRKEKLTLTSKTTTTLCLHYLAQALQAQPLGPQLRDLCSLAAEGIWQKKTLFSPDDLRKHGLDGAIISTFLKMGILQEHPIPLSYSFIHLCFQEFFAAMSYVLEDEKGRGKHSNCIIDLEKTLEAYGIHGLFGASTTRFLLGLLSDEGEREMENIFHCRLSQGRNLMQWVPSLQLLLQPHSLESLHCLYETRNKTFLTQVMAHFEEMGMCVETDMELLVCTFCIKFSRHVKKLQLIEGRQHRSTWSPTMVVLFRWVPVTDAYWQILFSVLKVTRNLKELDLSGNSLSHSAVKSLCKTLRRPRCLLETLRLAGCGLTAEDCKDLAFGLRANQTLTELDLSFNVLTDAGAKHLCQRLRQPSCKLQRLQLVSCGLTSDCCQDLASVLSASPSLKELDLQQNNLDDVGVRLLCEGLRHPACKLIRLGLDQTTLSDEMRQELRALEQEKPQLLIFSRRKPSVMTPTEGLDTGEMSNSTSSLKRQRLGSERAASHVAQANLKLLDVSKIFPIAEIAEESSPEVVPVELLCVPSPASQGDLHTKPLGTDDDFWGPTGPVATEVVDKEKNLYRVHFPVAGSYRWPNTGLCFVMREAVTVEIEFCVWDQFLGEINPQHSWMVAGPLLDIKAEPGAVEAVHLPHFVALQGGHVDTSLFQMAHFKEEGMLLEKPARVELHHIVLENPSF
NACHT, LRR and PYD domains-containing protein 1, sequence (Q9C000 1213-1473 limits assumed): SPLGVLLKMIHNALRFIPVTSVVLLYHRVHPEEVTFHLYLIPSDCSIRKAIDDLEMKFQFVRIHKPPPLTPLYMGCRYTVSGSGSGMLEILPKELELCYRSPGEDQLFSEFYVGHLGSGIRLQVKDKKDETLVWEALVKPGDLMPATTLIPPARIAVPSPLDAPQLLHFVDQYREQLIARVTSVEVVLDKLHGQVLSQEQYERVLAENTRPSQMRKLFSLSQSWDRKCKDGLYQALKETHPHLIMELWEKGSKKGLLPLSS

Cc1cc(C)cc(C(=O)N2CC(=O)Nc3ccccc32)c1
inconclusive: EC50 (BJ [7]) 1.24 µM | EC50 [10] > 12 µM | EC50 (BJ [11]) 11.5 µM
active: EC50 (BJ [1]) 3.38 µM | EC50 [2] 1.09 µM | EC50 [3] 0.921 µM | EC50 [4] 0.817 µM | EC50 (cells) 0.858 µM | EC50 [6] < 0.1 µM | EC50 [8] < 0.1 µM | IC50 (J774.A1) 0.161 µM
inactive: IC50 [5] > 80 µM | AC50 [9] > 30 µM

CCN(CC)C(=O)c1ccc2c(c1)C1C=CCC1C(C(=O)O)N2 (centres undefined)
active: EC50 [14] 11.2 µM | EC50 [15] 6.32 µM | AC50 (ORF 73) 166 µM | IC50 (Genome polyprotein) 86.7 µM
> 100 µM (not active): IC50 [12] | IC50 [13] | IC50 [16]

Cc1ccc(N2C(=O)CC(Sc3ccccc3C(=O)O)C2=O)cc1 (centres undefined)
inactive: IC50 [18] > 66 µM | IC50 [19] > 66 µM
active: IC50 [17] 34.4 µM | IC50 (Saccharomyces cerevisiae) 20.6 µM
